Assay [1] deals with PBT003 cells. Put plainly: Intratumoral MA2 in PBT003-grafted NSG mice. The class given is in vivo. The settings on record: vs vehicle control. The method, then:
Introcranial delivery of the FTO inhibitor MA2: PBT003 cells (2×10^5) transduced with luciferase expressing lentivirus were intracranially transplanted into the frontal lobe of NSG mice at the same coordinates as described above. One week after transplantation, tumors were detected by bioluminescence imaging and mice were treated with MA2 (5 μl of 600 μM MA2 in 1% DMSO in PBS per mouse) or vehicle control by intratumoral injection once a week for four weeks. Tumor growth was monitored by bioluminescence imaging every week for six weeks. The bioluminescence intensity was quantified.
To test the effect of the FTO inhibitor on GSC-initiated tumorigenesis, PBT003-grafted mice were treated with the selective FTO inhibitor MA2 intratumorally once a week for four weeks (FIG. 11d). Tumor formation was monitored by bioluminescence xenogen imaging.

A further assay concerns mRNA m^6A level in GSCs. Put plainly: m6A mRNA dot blot of GSCs treated with MA2. In kind it is cell-based, human. The settings on record: 50 μM MA2, 48 h, vs vehicle control. As to the method:
m^6A dot blot assay: GSCs were either maintained in sphere cultures or induced into differentiation for 1 week using 0.5% fetal bovine serum (Sigma) together with 1 μM all-trans retinoic acid (Sigma). Total RNAs were isolated from these GSCs using Trizol reagent (Ambion). GSCs were transduced with lentivirus expressing METTL3 or METTL14 shRNA or METTL3 cDNA. Seven days after transduction, total RNAs were extracted. mRNAs were prepared from total RNAs using Dynabeads® mRNA purification kit (Ambion, Catalog #61006). Indicated amount of mRNAs was used for dot blot analysis using an antibody specific for m^6A (1:1,000; Synaptic Systems; Catalog #202003). The intensity of dot blot signal was quantified by Image J.
(§1) Treatment of GSCs with the FTO inhibitor MA2: GSCs were seeded at 5×10^4 cells per well in 48-well plates and cultured overnight. These cells were treated with MA2, a chemical inhibitor of FTO (Huang et al., 2015) at 20, 40, 60, 80 μM or vehicle control and cultured for 48 h. Cell number was counted using a hemocytometer. To determine the effect of MA2 on the level of m^6A RNA modification, GSCs were treated with 50 μM MA2 for 48 h. mRNAs were prepared and subjected to m^6A dot blot assay. To test the effect of MA2 in limiting dilution assay, GSCs were treated at 40 μM or vehicle control for two weeks.

Assay [2] relates to GSCs. Put plainly: Sphere formation assay of METTL3 or METTL14 KD GSCs with MA2. The class given is cell-based, human. The settings on record: together with MA2. The method, then: Sphere formation assay: The sphere formation assay was performed as previously described (Cui et al., 2016). Briefly, three days after viral transduction, the transduced cells were seeded at 1 cell per well in 96-well plates (for those associated with the limiting dilution assay) or 100 cells per well in 48-well plates and cultured for 2 weeks. The sphere number was counted under microscope. The sphere formation rate was defined as the percentage of sphere-forming cells out of the number of starting cells.

Assay [3] relates to GSCs. Put plainly: Limiting dilution assay of GSCs treated with MA2. The settings on record: 40 μM, two weeks, vs control cells. The class given is cell-based, human. As to the method: Limiting dilution assay: GSCs were transduced with relevant shRNA or METTL3-expressing lentivirus. The transduced GSCs were seeded at 1, 5, 10, 20, 50 and 100 cells per well into 96-well plates. The number of neurospheres in each well was counted two weeks after seeding cells. Extreme limiting dilution analysis was performed using software available at http://bioinf.wehi.edu.au/software/elda.
as §1

The test system of the next assay is PBT111. Put plainly: Cell growth assay, MA2-treated GSCs (PBT111). The settings on record: 48 h. The class given is cell-based, human. As to the method: as §1
The subject of assay [4] is normal neural stem cells (NSC) line NSC006. Put plainly: Cell growth assay, control cells (NSC006). The class given is cell-based.
A further assay relates to HeLa cells. Nature of the assay: Cell growth assay, control cells (HeLa). The class given is cell-based.
The subject of another assay is PBT726. Nature of the assay: Cell growth assay, MA2-treated GSCs (PBT726). The class given is cell-based, human. The settings on record: 48 h. As to the method: as §1
The target of another assay is FTO (Homo sapiens, UniProt Q9C0B1). The settings on record: Huang et al., 2015; cited from earlier work.
Assay [5] deals with ADAM19, EPHA3, and KLF4 expression in PBT003 cells. Put plainly: RT-PCR of oncogene expression in GSCs. In kind it is cell-based, human. As to the method:
RT-PCR: Total RNAs isolated using Trizol reagent (Ambion) were subjected to reverse transcription (RT) performed using the Tetro cDNA synthesis Kit (BioLINE). RT-PCR reactions were performed using SYBR Green Master Mix (Thermo Scientific) on the Step One Plus Real-Time PCR instrument (Applied Biosystems). The primers for RT-PCR include METLL3 (F 5′-TCAGCATCGGAACCAGCAAAG-3′ (SEQ ID NO: 8); R 5′-TCCTGACTGACCTTCTTGCTC-3′ (SEQ ID NO: 9)), METLL14 (F 5′-GTTGGAACATGGATAGCCGC-3′ (SEQ ID NO: 10); R 5′-CAATGCTGTCGGCACTTTCA-3′ (SEQ ID NO: 11)), CD44 (F 5′-TGAGCATCGGATTTGAGACC-3′ (SEQ ID NO: 12); R 5′-TGTCATACTGGGAGGTGTTGG-3′ (SEQ ID NO: 13)), ADAM19 (F 5′-CCTGGATGGACAAGAGGAAG-3′ (SEQ ID NO: 14); R 5′-CTCAGCTTTGAGTGGATGCT-3′ (SEQ ID NO: 15)), EPAH3 (F 5′-GGGCTGGATCTCTTATCCATC-3′ (SEQ ID NO: 16); R 5′-GGACCCAGTTTGTTCTCAGC-3′ (SEQ ID NO: 17)), KLF4 (F 5′-AAGAGTTCCCATCTCAAGGC-3′ (SEQ ID NO: 18); R 5′-CCGTGTGTTTACGGTAGTGC-3′ (SEQ ID NO: 19)), and ACTIN (F 5′-CCGCAAAGACCTGTACGCCAAC-3′ (SEQ ID NO: 20); R 5′-CCAGGGCAGTGATCTCCTTCTG-3′ (SEQ ID NO: 21)). ACTIN was included as the reference gene for normalization. The ΔΔCt method was used for quantification analysis.

The next assay relates to PBT707. Put plainly: Cell growth assay, MA2-treated GSCs (PBT707). The class given is cell-based, human. The settings on record: 48 h. The method, then: as §1
Assay [6] has as its system PBT003 cells. Nature of the assay: Cell growth assay, MA2-treated GSCs (PBT003). The settings on record: PBT003, 60 μM and 80 μM, 48 h. In kind it is cell-based, human. As to the method: as §1
The test system of the next assay is brain astrocytes. Nature of the assay: Cell growth assay, control cells (astrocytes). The class given is cell-based.

Molecules are shown by their SMILES.

Sequence of FTO (Q9C0B1 whole entry): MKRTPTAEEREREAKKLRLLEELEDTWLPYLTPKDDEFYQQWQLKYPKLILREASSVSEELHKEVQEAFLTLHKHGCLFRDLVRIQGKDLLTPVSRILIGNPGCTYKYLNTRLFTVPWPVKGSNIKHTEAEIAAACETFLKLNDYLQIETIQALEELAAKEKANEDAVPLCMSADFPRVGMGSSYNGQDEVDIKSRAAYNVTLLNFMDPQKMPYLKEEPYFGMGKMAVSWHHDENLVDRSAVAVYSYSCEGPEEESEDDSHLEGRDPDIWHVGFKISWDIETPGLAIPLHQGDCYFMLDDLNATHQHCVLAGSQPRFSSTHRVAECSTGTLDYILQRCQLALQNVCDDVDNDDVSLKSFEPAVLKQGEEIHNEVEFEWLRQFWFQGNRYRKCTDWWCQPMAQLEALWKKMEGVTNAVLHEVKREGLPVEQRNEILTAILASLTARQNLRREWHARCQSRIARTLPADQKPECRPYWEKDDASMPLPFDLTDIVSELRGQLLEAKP

On to `CCOC(=O)c1ccccc1Nc1c(Cl)ccc(C)c1Cl` [MA2, ethyl ester form of meclofenamic acid (MA)], for which, in the assay on PBT003 cells [1] (4 or 5 weeks after compound treatment), the tumor luciferase activity result is on record as “significant decrease”. In the assay on PBT003 cells [1] (intratumoral, once a week for four weeks), the “tumor size by bioluminescence xenogen imaging” value was “much smaller tumors”. For the same molecule, the survival entry in the assay with PBT003 cells [1] (log-rank test) is given as “substantially prolonged survival”. Moreover, in the assay with mRNA m^6A level in GSCs, the “mRNA m^6A level” value is “substantial increase”. Also, the sphere formation rate entry in the assay with GSCs [2] was “reversed the effect of elevated sphere formation rate”. In addition, in the assay with GSCs [3], the “self-renewal of GSCs (stem cell frequency)” value is given as “dramatically inhibited the self-renewal”. Besides, the cell growth entry is given as “inhibited the growth” in the assay with PBT111 (PBT111, 20 μM and 40 μM); “substantial inhibitory effect” in the assay with PBT111 (PBT111, 60 μM and 80 μM); “no substantial effect” in [4] (NSC006, up to 60 μM); “Mild effect” in assay [4] (NSCs, 80 μM); “Mild effect” in the assay on HeLa cells (80 μM); “no substantial effect” with HeLa cells (up to 60 μM). The cell growth entry is given as “suppressed the growth” in the assay with PBT726 (PBT726, 40 μM); “substantial inhibitory effect” with PBT726 (PBT726, 60 μM and 80 μM); “suppressed the growth” in the assay with PBT707 (PBT707, 40 μM); “substantial inhibitory effect” with PBT707 (PBT707, 60 μM and 80 μM); “dramatic growth inhibitory effect” in the assay on PBT003 cells [6]; “Mild effect” in the assay on brain astrocytes (astrocytes, 80 μM). In addition, in the assay with brain astrocytes (brain astrocytes, up to 60 μM), the cell growth result is listed as “no substantial effect”. Also, at FTO, the FTO inhibition entry is on record as “selective inhibitor of FTO”. Further, in assay [5], the “expression of ADAM19, EPHA3, and KLF4” value is reported as “decreased expression”.
